Experimental data published in PMC8294059, “Identification and Immune Assessment of T Cell Epitopes in Five Plasmodium falciparum Blood Stage Antigens to Facilitate Vaccine Candidate Selection and Optimization” (Frontiers in Immunology, 2021).
Where a SMILES comes first, the peptide text is derived from it.

Experiments:
Assay in all cases: biochemical
Assay type in all cases: binding
HLA-DRB1*0101 = target: T1, HLA-DRB1*0101 (Homo sapiens, UniProt P01903+P01911, A100R/D57E/F55L/F60I/F76Y/I96L/L162R/M171V/P40L/Q125E/R42F/V115G/Y59C); settings: binding inhibition assay; NB = non-binder (no dose-dependent inhibition); read-out: DRB1*0101 IC50
T1 construct: purchased
Procedure: (§1) The binding assay conducted by EpiVax yields an indirect measure of peptide-MHC affinity as it utilizes a competition assay format per the methodology described in Steere et al. ([35]). […] Post incubation, the mixtures are moved to a 96-well plate coated with anti-HLA-DR antibody to capture HLA-peptide complexes. Time-resolved fluorescence measurement of the bound labeled reference peptide complex present in each mixture is detected with a europium-linked probe via fluorescent spectrophotometry using a SpectraMax M5 system. HLA binding affinity of each test peptide is expressed as the percent inhibition of reference peptide binding. Percent inhibition values (across the test peptide titration range) are used to calculate the half maximal inhibitory concentration (IC50) of each test peptide. For these studies, test peptides were assessed using a range of final concentrations from 100,000 nM to 100 nM. The panel of commercially-available HLA-DRB1 allele monomers used includes: *0101, *0301, *0401, *0701, *0801, *1101, *1301 and *1501. EpiVax established HLA-DRB1 binding affinity cutoffs were used to rank the IC50 values.
(§2) In vitro HLA binding assays (step 2 of workflow shown in Figure 1 ) were carried out with the synthesized peptides to verify the EpiMatrix outputs and provide a measure of accuracy for comparing in silico-predicted HLA-DRB1 allele binding to laboratory assessments of HLA-DRB1 allele binding. These assessments were conducted using a competition assay format whereby IC50 values were calculated based on the ability of the test peptide to compete with a labeled, high binding affinity reference peptide for HLA-DRB1 molecule binding. Sequences for the high affinity reference peptides and the negative control peptide, known not to bind any of the HLA-DRB1 molecules, are provided in Table S18 .

HLA-DRB1*0401 = target: T2, HLA-DRB1*0401 (Homo sapiens, UniProt P01903+P01911, A100K/A169T/F76Y/I96L/K127E/L162R/M171V/N62H/P40V/Q125Y/R42H/S133A/S149N/S66Y/V115G/V209L/W38E); settings: binding inhibition assay; NB = non-binder (no dose-dependent inhibition); read-out: DRB1*0401 IC50
T2 construct: purchased
Procedure: as §1, §2

HLA-DRB1*0701 = HLA-DRB1*0701 (Homo sapiens, UniProt P01903+P01911, A100R/A102G/A103Q/D57E/D86V/E43K/F76Y/K127E/L162R/M171V/P40G/Q125H/Q99D/R33Q/R42Y/R54Q/S133A/S66F/T210M/V115G/Y107V/Y59L/Y89S); settings: binding inhibition assay; NB = non-binder (no dose-dependent inhibition); read-out: DRB1*0701 IC50
Procedure: as §1, §2

HLA-DRB1*0801 = HLA-DRB1*0801 (Homo sapiens, UniProt P01903+P01911, A100R/A103L/A169T/D86S/F76Y/H45Y/I96F/K41T/L162R/M171V/P40S/Q125H/Q178H/Q39Y/Q99D/R218S/R42G/S66Y/V115G/W38E); settings: binding inhibition assay; NB = non-binder (no dose-dependent inhibition); read-out: DRB1*0801 IC50
Procedure: as §1, §2

HLA-DRB1*1101 = HLA-DRB1*1101 (Homo sapiens, UniProt P01903+P01911, A100R/A169T/A87E/I96F/K41T/L162R/M171V/P40S/Q125H/Q178H/Q39Y/Q99D/R42S/S66Y/T262R/V115G/W38E); settings: binding inhibition assay; NB = non-binder (no dose-dependent inhibition); read-out: DRB1*1101 IC50
Procedure: as §1, §2

HLA-DRB1*1301 = HLA-DRB1*1301 (Homo sapiens, UniProt P01903+P01911, A100E/A169T/K41T/L162R/M171V/P40S/Q125H/Q178H/Q39Y/Q99D/R42S/S66N/T262R/W38E/Y61H); settings: binding inhibition assay; NB = non-binder (no dose-dependent inhibition); read-out: DRB1*1301 IC50
Procedure: as §1, §2

HLA-DRB1*1501 = target: T3, HLA-DRB1*1501 (Homo sapiens, UniProt P01903+P01911); settings: binding inhibition assay; NB = non-binder (no dose-dependent inhibition); read-out: DRB1*1501 IC50
T3 construct: purchased
Procedure: as §1, §2

Chain of HLA-DRB1*1101 (P01903 26-254 limits assumed, other chains not shown): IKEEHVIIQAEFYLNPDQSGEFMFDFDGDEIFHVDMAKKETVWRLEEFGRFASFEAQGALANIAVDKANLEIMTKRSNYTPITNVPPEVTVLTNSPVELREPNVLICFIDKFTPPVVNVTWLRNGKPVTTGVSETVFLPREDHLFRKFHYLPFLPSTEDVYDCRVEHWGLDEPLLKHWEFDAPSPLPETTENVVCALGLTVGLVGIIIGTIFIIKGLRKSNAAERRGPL

| Compound | IC50 (HLA-DRB1*0101) | IC50 (HLA-DRB1*0401) | IC50 (HLA-DRB1*0701) | IC50 (HLA-DRB1*0801) | IC50 (HLA-DRB1*1101) | IC50 (HLA-DRB1*1301) | IC50 (HLA-DRB1*1501) |
| --- | --- | --- | --- | --- | --- | --- | --- |
| CC[C@H](C)[C@H](NC(=O)[C@H](CCSC)NC(=O)[C@H](Cc1ccc(O)cc1)NC(=O)[C@@H](NC(=O)[C@H](Cc1ccccc1)NC(=O)[C@H](CCC(=O)O)NC(=O)[C@H](Cc1ccccc1)NC(=O)[C@H](C)N)[C@@H](C)O)C(=O)N[C@@H](CC(N)=O)C(=O)N[C@@H](Cc1ccccc1)C(=O)NCC(=O)N[C@@H](CCCNC(=N)N)C(=O)NCC(=O)N[C@@H](CCC(N)=O)C(=O)N[C@@H](CC(N)=O)C(=O)N[C@@H](Cc1ccc(O)cc1)C(=O)N[C@@H](Cc1c[nH]c2ccccc12)C(=O)N[C@@H](CCC(=O)O)C(N)=O [AMA1_002] (H-AFEFTYMINFGRGQNYWE-NH2) | 117 nM | 0.045 µM | 113 nM | 0.239 µM | 236 nM | 0.723 µM | 76 nM |
| CC(=O)N[C@@H](Cc1ccccc1)C(=O)N[C@@H](CCC(N)=O)C(=O)N[C@@H](CC(N)=O)C(=O)N[C@@H](Cc1ccc(O)cc1)C(=O)N[C@H](C(=O)N[C@@H](Cc1ccc(O)cc1)C(=O)N[C@@H](CC(C)C)C(=O)N[C@@H](CO)C(=O)N[C@@H](CCCCN)C(=O)N[C@@H](CC(N)=O)C(=O)N[C@H](C(=O)N[C@H](C(=O)N[C@@H](CC(=O)O)C(=O)N[C@@H](CC(N)=O)C(=O)N[C@@H](Cc1c[nH]c2ccccc12)C(=O)N[C@@H](CCC(=O)O)C(N)=O)C(C)C)C(C)C)[C@@H](C)O [AMA1_004] (Ac-FQNYTYLSKNVVDNWE-NH2) | 16 nM | 9.69 µM | 9480 nM | 0.01 µM | 567 nM | 70 µM | 248 nM |
| CC[C@H](C)[C@H](NC(=O)[C@@H](NC(=O)[C@H](C)NC(=O)[C@H](CC(C)C)NC(C)=O)[C@@H](C)O)C(=O)N[C@@H](CC(C)C)C(=O)N[C@@H](CCSC)C(=O)N[C@H](C(=O)N[C@@H](Cc1ccc(O)cc1)C(=O)N[C@@H](CC(C)C)C(=O)N[C@@H](Cc1ccc(O)cc1)C(=O)N[C@@H](CCCCN)C(=O)N[C@@H](CCCNC(=N)N)C(=O)N[C@@H](CCCCN)C(=O)NCC(=O)N[C@@H](CC(N)=O)C(=O)N[C@@H](C)C(=O)N[C@@H](CCC(=O)O)C(=O)N[C@@H](CCCCN)C(=O)N[C@@H](Cc1ccc(O)cc1)C(=O)N[C@@H](CC(=O)O)C(=O)N[C@@H](CCCCN)C(N)=O)C(C)C [AMA1_009] (Ac-LATILMVYLYKRKGNAEKYDK-NH2) | 10000 nM | 11.1 µM | 3400 nM | 7.99 µM | 165 nM | 4.4 µM | 2440 nM |
| CC[C@H](C)[C@H](NC(=O)[C@H](Cc1ccccc1)NC(=O)[C@H](CC(N)=O)NC(=O)[C@@H](NC(=O)[C@H](CC(N)=O)NC(=O)[C@H](CCCCN)NC(=O)[C@@H](NC(=O)[C@H](CC(N)=O)NC(=O)[C@H](CC(N)=O)NC(=O)[C@@H](NC(=O)[C@H](CC(N)=O)NC(=O)[C@H](CC(=O)O)NC(=O)CNC(=O)[C@@H](NC(=O)[C@H](Cc1ccc(O)cc1)NC(=O)[C@H](Cc1ccccc1)NC(=O)[C@@H](N)Cc1c[nH]cn1)C(C)C)[C@@H](C)CC)C(C)C)C(C)C)C(=O)N[C@@H](CCC(=O)O)C(N)=O [CYRPA_005] (H-HFYVGDNINNVKNVNFIE-NH2) | 182 nM | 0.078 µM | 137 nM | 11.8 µM | 293 nM | 0.633 µM | 122 nM |
| CC[C@H](C)[C@H](NC(=O)CNC(=O)[C@H](CCC(N)=O)NC(=O)[C@H](CO)NC(=O)[C@H](CO)NC(=O)[C@H](CO)NC(=O)[C@H](Cc1ccc(O)cc1)NC(=O)[C@@H](NC(=O)[C@H](Cc1ccccc1)NC(=O)[C@H](CC(C)C)NC(=O)[C@@H](NC(=O)[C@H](CCCNC(=N)N)NC(=O)[C@H](CC(N)=O)NC(=O)[C@H](CCC(=O)O)NC(=O)[C@H](CC(=O)O)NC(C)=O)[C@@H](C)O)[C@@H](C)CC)C(=O)N[C@@H](Cc1ccc(O)cc1)C(=O)N[C@@H](CC(N)=O)C(=O)N[C@H](C(=O)N[C@@H](Cc1c[nH]cn1)C(=O)N[C@H](C(N)=O)[C@@H](C)O)[C@@H](C)CC [CYRPA_008] (Ac-DENRTLFIYSSSQGIYNIHT-NH2) | 4 nM | 1.05 µM | 219 nM | 11.5 µM | 1130 nM | 6.98 µM | 50 nM |
| CC[C@H](C)[C@H](NC(=O)[C@H](CC(=O)O)NC(=O)[C@H](Cc1ccc(O)cc1)NC(=O)[C@H](CCC(=O)O)NC(=O)[C@H](CC(N)=O)NC(=O)[C@H](CCCNC(=N)N)NC(=O)[C@H](C)NC(=O)[C@H](CCCCN)NC(=O)[C@H](C)NC(=O)[C@H](Cc1ccccc1)NC(=O)[C@H](Cc1ccc(O)cc1)NC(=O)[C@H](CC(C)C)NC(=O)[C@@H](NC(=O)[C@H](Cc1ccccc1)NC(=O)[C@H](Cc1ccccc1)NC(=O)[C@H](CO)NC(=O)[C@H](C)NC(C)=O)C(C)C)C(=O)N[C@@H](CCCCN)C(N)=O [EBA175_001B] (Ac-ASFFVLYFAKARNEYDIK-NH2) | 678 nM | 2.27 µM | 421 nM | 9.88 µM | 520 nM | 2.24 µM | 265 nM |
| CC[C@H](C)[C@H](NC(=O)[C@H](CCCNC(=N)N)NC(=O)[C@H](CO)NC(=O)[C@@H](NC(=O)[C@H](CCCNC(=N)N)NC(=O)[C@@H](NC(=O)[C@H](C)NC(=O)[C@H](CC(N)=O)NC(=O)[C@@H](NC(=O)[C@@H]1CCCN1C(=O)[C@@H](NC(=O)[C@H](Cc1ccc(O)cc1)NC(=O)[C@H](CCCCN)NC(=O)[C@H](CC(N)=O)NC(=O)[C@H](CCC(N)=O)NC(=O)[C@H](CCCCN)NC(C)=O)C(C)C)[C@@H](C)CC)C(C)C)C(C)C)C(=O)N[C@@H](CC(C)C)C(=O)N[C@@H](CO)C(=O)N[C@@H](Cc1ccccc1)C(=O)N[C@@H](CC(C)C)C(=O)N[C@@H](CC(=O)O)C(=O)N[C@@H](CO)C(N)=O [EBA175_004] (Ac-KQNKYVPINAVRVSRILSFLDS-NH2) | 4 nM | 18.2 µM | 18 nM | 6.12 µM | 396 nM | 1.36 µM | 2070 nM |
| CC[C@H](C)[C@H](NC(=O)[C@H](CO)NC(=O)[C@@H](NC(=O)[C@@H]1CCCN1C(=O)[C@@H](NC(=O)[C@H](CC(=O)O)NC(C)=O)C(C)C)[C@@H](C)CC)C(=O)N[C@H](C(=O)N[C@@H](CCCNC(=N)N)C(=O)N[C@@H](CC(N)=O)C(=O)N[C@@H](CC(N)=O)C(=O)N[C@@H](CCC(=O)O)C(=O)N[C@@H](CCC(N)=O)C(=O)N[C@H](C(=O)N[C@@H](CO)C(=O)N[C@@H](CCC(N)=O)C(=O)N[C@@H](CCC(=O)O)C(=O)N[C@@H](C)C(N)=O)[C@@H](C)O)[C@@H](C)CC [EBA175_014] (Ac-DVPISIIRNNEQTSQEA-NH2) | 6150 nM | 3.81 µM | 13300 nM | 18.7 µM | 16700 nM | 14.1 µM | 3090 nM |
